ChEMBL document CHEMBL4680139, “Antiproliferative activity of diarylnaphthylpyrrolidine derivative via dual target inhibition” (Eur J Med Chem, 2020)

Tests used:
[1] = Toxicity in Swiss albino mouse assessed as ALP level in serum at 5 mg/kg, po administered as single dose (reference value: 195.8 +/-12.06 U/L); assay type: organism-based; details: in vivo
MCF7 [2] = test: Induction of apoptosis in human MCF-7 cells at 4.33 uM by propidium iodide staining based flow cytometry (reference value: 2.1%); assay type: functional
MDA-MB-231 [3] = test: Induction of apoptosis in human MDA-MB-231 cells assessed as proportion of late apoptotic cells at 2.6 uM measured after 24 hrs by Annexin V-FITC/propidium iodide staining based flow cytometry (reference value: 0.5%); assay type: functional
[4] = Toxicity in Swiss albino mouse assessed as body weight at 300 mg/kg, po administered as single dose (reference value: 31.62 +/- 1.64 gms); assay type: organism-based; details: in vivo
MCF7 [5] = test: Induction of apoptosis in human MCF-7 cells assessed as proportion of necrotic cells at 4.33 uM measured after 24 hrs by Annexin V- FITC/propidium iodide staining based flow cytometry (reference value: 5.3%); assay type: functional
MCF7 [6] = test: Induction of apoptosis in human MCF-7 cells assessed as proportion of early apoptotic cells at 4.33 uM measured after 24 hrs by Annexin V- FITC/propidium iodide staining based flow cytometry (reference value: 0%); assay type: functional
[7] = Toxicity in Swiss albino mouse assessed as body weight at 5 mg/kg, po administered as single dose (reference value: 31.62 +/- 1.64 gms); assay type: organism-based; details: in vivo
[8] = Toxicity in Swiss albino mouse assessed as WBC level in blood at 5 mg/kg, po administered as single dose (reference value: 17.06 +/- 1.33x10^3/mm3); assay type: organism-based; details: in vivo
MCF7 [9] = test: Induction of cell cycle arrest in human MCF-7 cells assessed as accumulation at G2/M phase at 8.66 uM by propidium iodide staining based flow cytometry (reference value: 15.2%); assay type: functional
[10] = Toxicity in Swiss albino mouse assessed as cholesterol level in serum at 50 mg/kg, po administered as single dose (reference value: 103.62 +/-7.45 mg/dl); assay type: organism-based; details: in vivo
MDA-MB-231 [11] = test: Induction of cell cycle arrest in human MDA-MB-231 cells assessed as accumulation at S phase at 10.42 uM by propidium iodide staining based flow cytometry (reference value: 11.35 +/- 0.07%); assay type: functional
[12] = Toxicity in Swiss albino mouse assessed as RBC level in blood at 5 mg/kg, po administered as single dose (reference value: 10.56 +/- 1.22x10^6/mm3); assay type: organism-based; details: in vivo
MDA-MB-231 [13] = test: Induction of cell cycle arrest in human MDA-MB-231 cells assessed as accumulation at G0/G1 phase at 10.42 uM by propidium iodide staining based flow cytometry (reference value: 77.7 +/- 0.28%); assay type: functional
MDA-MB-231 [14] = test: Induction of apoptosis in human MDA-MB-231 cells assessed as proportion of necrotic cells at 5.21 uM measured after 24 hrs by Annexin V-FITC/propidium iodide staining based flow cytometry (reference value: 0.2%); assay type: functional
[15] = Toxicity in Swiss albino mouse assessed as creatinine level in serum at 5 mg/kg, po administered as single dose (reference value: 0.27+/-0.02 mg/dl); assay type: organism-based; details: in vivo
[16] = Toxicity in Swiss albino mouse assessed as creatinine level in serum at 50 mg/kg, po administered as single dose (reference value: 0.27+/-0.02 mg/dl); assay type: organism-based; details: in vivo
MCF7 [17] = test: Induction of cell cycle arrest in human MCF-7 cells assessed as accumulation at S phase at 8.66 uM by propidium iodide staining based flow cytometry (reference value: 6.9%); assay type: functional
MDA-MB-231 [18] = test: Induction of cell cycle arrest in human MDA-MB-231 cells assessed as accumulation at G2/M phase at 5.21 uM by propidium iodide staining based flow cytometry (reference value: 8.35 +/- 0.07%); assay type: functional
[19] = Toxicity in Swiss albino mouse assessed as serum protein level at 50 mg/kg, po administered as single dose (reference value: 2.83 +/-0.09 mg/ml); assay type: organism-based; details: in vivo
[20] = Toxicity in Swiss albino mouse assessed as ALP level in serum at 50 mg/kg, po administered as single dose (reference value: 195.8 +/-12.06 U/L); assay type: organism-based; details: in vivo
[21] = Toxicity in Swiss albino mouse assessed as albumin level in serum at 50 mg/kg, po administered as single dose (reference value: 0.56 +/-0.02 g/dl); assay type: organism-based; details: in vivo
HCT-116 = test: Antiproliferative activity against human HCT-116 cells assessed as inhibition of cell growth measured after 48 hrs by SRB assay; assay type: functional, cell-based; details: HCT-116, 48 h
MDA-MB-231 [22] = test: Induction of cell cycle arrest in human MDA-MB-231 cells assessed as accumulation at G0/G1 phase at 5.21 uM by propidium iodide staining based flow cytometry (reference value: 77.7 +/- 0.28%); assay type: functional
[23] = Toxicity in Swiss albino mouse assessed as absolute and relative lung weight at 5 to 300 mg/kg, po administered as single dose; assay type: organism-based; details: in vivo, dose 5-300 mg/kg
[24] = Toxicity in Swiss albino mouse assessed as total bilirubin level in serum at 50 mg/kg, po administered as single dose (reference value: 0.62 +/-0.05 mg/dl); assay type: organism-based; details: in vivo
MDA-MB-231 [25] = test: Induction of apoptosis in human MDA-MB-231 cells assessed as proportion of early apoptotic cells at 5.21 uM measured after 24 hrs by Annexin V-FITC/propidium iodide staining based flow cytometry (reference value: 0.2%); assay type: functional
[26] = Toxicity in Swiss albino mouse assessed as cholesterol level in serum at 300 mg/kg, po administered as single dose (reference value: 103.62 +/-7.45 mg/dl); assay type: organism-based; details: in vivo
MDA-MB-231 [27] = test: Induction of apoptosis in human MDA-MB-231 cells assessed as proportion of early apoptotic cells at 10.42 uM measured after 24 hrs by Annexin V-FITC/propidium iodide staining based flow cytometry (reference value: 0.2%); assay type: functional
[28] = Toxicity in Swiss albino mouse assessed as absolute and relative heart weight at 5 to 300 mg/kg, po administered as single dose; assay type: organism-based; details: in vivo, dose 5-300 mg/kg
[29] = Toxicity in Swiss albino mouse assessed as absolute and relative spleen weight at 5 to 300 mg/kg, po administered as single dose; assay type: organism-based; details: in vivo, dose 5-300 mg/kg
MCF7 [30] = test: Induction of apoptosis in human MCF-7 cells assessed as proportion of viable cells at 8.66 uM measured after 24 hrs by Annexin V- FITC/propidium iodide staining based flow cytometry (reference value: 94.6%); assay type: functional
MDA-MB-231 [31] = test: Induction of cell cycle arrest in human MDA-MB-231 cells assessed as accumulation at S phase at 2.6 uM by propidium iodide staining based flow cytometry (reference value: 11.35 +/- 0.07%); assay type: functional
[32] = Toxicity in Swiss albino mouse assessed as serum protein level at 300 mg/kg, po administered as single dose (reference value: 2.83 +/-0.09 mg/ml); assay type: organism-based; details: in vivo
MCF7 [33] = test: Induction of cell cycle arrest in human MCF-7 cells assessed as accumulation at G0/G1 phase at 2.17 uM by propidium iodide staining based flow cytometry (reference value: 74.5%); assay type: functional

SMILES: COc1ccc(C(c2ccccc2OCCN2CCCC2)c2cccc3ccccc23)c(OC)c1OC (centres undefined)
- Activity [1]: 198.57 U/L
- Activity (MCF7 [2]): 4.7%
- Activity (MDA-MB-231 [3]): 2%
- Activity [4]: 31.03 g
- Activity (MCF7 [5]): 10.5%
- Activity (MCF7 [6]): 0%
- Activity [7]: 30.58 g
- Activity [8]: 11.11 10^3/mm3
- Activity (MCF7 [9]): 12.8%
- Activity [10]: 100.11 mg/dL
- Activity (MDA-MB-231 [11]): 11.35%
- Activity [12]: 13.06 million/mm3
- Activity (MDA-MB-231 [13]): 56.9%
- Activity (MDA-MB-231 [14]): 1.7%
- Activity [15]: 0.22 mg/dL
- Activity [16]: 0.34 mg/dL
- Activity (MCF7 [17]): 9.2%
- Activity (MDA-MB-231 [18]): 10.2%
- Activity [19]: 2.52 mg/mL
- Activity [20]: 182.4 U/L
- Activity [21]: 0.57 g/dL
- IC50 (HCT-116): 2.03 µM
- Activity (MDA-MB-231 [22]): 79.1%
- Activity [23]: Non-Toxic
- Activity [24]: 0.62 mg/dL
- Activity (MDA-MB-231 [25]): 0.4%
- Activity [26]: 120.54 mg/dL
- Activity (MDA-MB-231 [27]): 1.7%
- Activity [28]: Non-Toxic
- Activity [29]: Non-Toxic
- Activity (MCF7 [30]): 61.8%
- Activity (MDA-MB-231 [31]): 6.75%
- Activity [32]: 2.87 mg/mL
- Activity (MCF7 [33]): 74.6%
